From patent US10792255B2, “Reconstituted apolipoprotein B lipoparticle, a preparation method and uses thereof” (National Chiao Tung University, priority 2013, dated 2020)

Key:
A549 cells = assay: Functional test of M4N@rABL (cell viability, trypan blue); type: cell-based; details: 100 μM M4N (20 μg/ml rABL), 24 hrs treatment then 48 hrs culture
Text: After removing the medium, the cells were washed twice with PBS and cultured with serum-containing medium for 48 hrs. The cell viability was observed by a trypan blue staining.

mice = details: long-term feeding; cited from earlier work

For `COc1ccc(C[C@@H](C)[C@@H](C)Cc2ccc(OC)c(OC)c2)cc1OC` [M4N, tetra-O-methyl nordihydroguaiaretic acid], the cell viability (A549 cells) is given as 40% and the “weight changes or mortality” value (mice) is given as “not found any obvious weight changes or mortality”.
